Tests used:
Type in all cases: in vivo
[1] = test system: giant foxtail (Setaria faberi); assay: Test G Pre-Emergence Protocol; settings: Setaria faberi, pre-emergence, 312 h, evaluated after 13 days; for pest or weed control at 15.625 g/ha: 15.625 g ai/ha; for pest or weed control at 15.625 g/ha / pest or weed control at 250 g/ha: read-out: Foxtail, Giant damage rating (100=total damage to plant; 0=no damage to plant); for pest or weed control at 62.5 g/ha: 62.5 g ai/ha, 100=total damage to plant, 0=no damage to plant, read-out: plant damage rating, Foxtail, Giant; for pest or weed control at 250 g/ha: 250 g ai/ha
Summary of the method: (§1)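 Visual injury (0–100) at day 13 after a single pre-emergence spray. Rates: 15.625, 62.5, 250 g/ha in acetone–water 50:50 with 0.5% Tween 20. Growth conditions: 24/16° C, 14 h light, 65% humidity.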

[2] = test system: corn (Zea mays); assay: Test G Pre-Emergence Protocol; settings: Zea mays, pre-emergence, 312 h, evaluated after 13 days; for plant injury at 15.625 g/ha: 15.625 g ai/ha; for plant injury at 15.625 g/ha / plant injury at 250 g/ha: read-out: Corn damage rating (100=total damage to plant; 0=no damage to plant); for plant injury at 62.5 g/ha: 62.5 g ai/ha, 100=total damage to plant, 0=no damage to plant, read-out: plant damage rating, Corn; for plant injury at 250 g/ha: 250 g ai/ha
Summary of the method: as §1

[3] = test system: barnyardgrass (Echinochloa crus-galli); assay: Test G Pre-Emergence Protocol; settings: Echinochloa crus-galli, pre-emergence, 312 h, evaluated after 13 days; for pest or weed control at 15.625 g/ha: 15.625 g ai/ha, read-out: Barnyard grass damage rating (100=total damage to plant; 0=no damage to plant); for pest or weed control at 62.5 g/ha: 62.5 g ai/ha, 100=total damage to plant, 0=no damage to plant, read-out: plant damage rating, Barnyardgrass; for pest or weed control at 250 g/ha: 250 g ai/ha, read-out: Barnyardgrass damage rating (100=total damage to plant; 0=no damage to plant)
Summary of the method: as §1

[4] = test system: velvetleaf (Abutilon theophrasti); assay: Test G Pre-Emergence Protocol; settings: Abutilon theophrasti, pre-emergence, 312 h, evaluated after 13 days; for pest or weed control at 15.625 g/ha: 15.625 g ai/ha; for pest or weed control at 15.625 g/ha / pest or weed control at 250 g/ha: read-out: Velvetleaf damage rating (100=total damage to plant; 0=no damage to plant); for pest or weed control at 62.5 g/ha: 62.5 g ai/ha, 100=total damage to plant, 0=no damage to plant, read-out: plant damage rating, Velvetleaf; for pest or weed control at 250 g/ha: 250 g ai/ha
Summary of the method: as §1

[5] = test system: ivy-leaved morning glory (Ipomoea hederacea); assay: Test G Pre-Emergence Protocol; settings: Ipomoea, pre-emergence, 312 h, evaluated after 13 days; for pest or weed control at 15.625 g/ha: 15.625 g ai/ha, read-out: Morning-glory, Ivy-leaved damage rating (100=total damage to plant; 0=no damage to plant); for pest or weed control at 62.5 g/ha: 62.5 g ai/ha, 100=total damage to plant, 0=no damage to plant, read-out: plant damage rating, Morningglory, Ivy-leaved; for pest or weed control at 250 g/ha: 250 g ai/ha, read-out: Morningglory, Ivy-leaved damage rating (100=total damage to plant; 0=no damage to plant)
Summary of the method: as §1

[6] = test system: redroot pigweed (Amaranthus retroflexus); assay: Test G Pre-Emergence Protocol; settings: Amaranthus retroflexus, pre-emergence, 312 h, evaluated after 13 days; for pest or weed control at 15.625 g/ha: 15.625 g ai/ha; for pest or weed control at 15.625 g/ha / pest or weed control at 250 g/ha: read-out: Pigweed, Redroot damage rating (100=total damage to plant; 0=no damage to plant); for pest or weed control at 62.5 g/ha: 62.5 g ai/ha, 100=total damage to plant, 0=no damage to plant, read-out: plant damage rating, Pigweed, Redroot; for pest or weed control at 250 g/ha: 250 g ai/ha
Summary of the method: as §1

[7] = test system: giant foxtail (Setaria faberi); assay: Test G Post-Emergence Protocol; settings: Setaria faberi, post-emergence, 312 h; for pest or weed control at 15.625 g/ha: 15.625 g ai/ha, evaluated after 13 days (100=total damage to plant; 0=no damage to plant), read-out: Foxtail, Giant damage rating; for pest or weed control at 62.5 g/ha: 62.5 g ai/ha, read-out: Foxtail, Giant damage rating (100=total damage to plant; 0=no damage to plant); for pest or weed control at 62.5 g/ha / pest or weed control at 250 g/ha: evaluated after 13 days; for pest or weed control at 250 g/ha: 250 g ai/ha, read-out: damage to plant, Foxtail, Giant (100=total damage to plant; 0=no damage to plant)
Summary of the method: (§2)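 A glasshouse post-emergence test: 8-day-old plants sprayed at 15.625, 62.5 or 250 g/ha, then grown at 24/16 °C day/night with 14 h light and 65% humidity. Damage rated 13 days later, 0–100.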

[8] = test system: corn (Zea mays); assay: Test G Post-Emergence Protocol; settings: Zea mays, post-emergence, 312 h; for plant injury at 15.625 g/ha: 15.625 g ai/ha, evaluated after 13 days (100=total damage to plant; 0=no damage to plant), read-out: Corn damage rating; for plant injury at 62.5 g/ha: 62.5 g ai/ha, read-out: Corn damage rating (100=total damage to plant; 0=no damage to plant); for plant injury at 62.5 g/ha / plant injury at 250 g/ha: evaluated after 13 days; for plant injury at 250 g/ha: 250 g ai/ha, read-out: damage to plant, Corn (100=total damage to plant; 0=no damage to plant)
Summary of the method: as §2

[9] = test system: barnyardgrass (Echinochloa crus-galli); assay: Test G Post-Emergence Protocol; settings: Echinochloa crus-galli, post-emergence, 312 h; for pest or weed control at 15.625 g/ha: 15.625 g ai/ha, evaluated after 13 days (100=total damage to plant; 0=no damage to plant), read-out: Barnyardgrass damage rating; for pest or weed control at 62.5 g/ha: 62.5 g ai/ha, read-out: Barnyardgrass damage rating (100=total damage to plant; 0=no damage to plant); for pest or weed control at 62.5 g/ha / pest or weed control at 250 g/ha: evaluated after 13 days; for pest or weed control at 250 g/ha: 250 g ai/ha, read-out: damage to plant, Barnyardgrass (100=total damage to plant; 0=no damage to plant)
Summary of the method: as §2

[10] = test system: velvetleaf (Abutilon theophrasti); assay: Test G Post-Emergence Protocol; settings: Abutilon theophrasti, post-emergence, 312 h; for pest or weed control at 15.625 g/ha: 15.625 g ai/ha, evaluated after 13 days (100=total damage to plant; 0=no damage to plant), read-out: Velvetleaf damage rating; for pest or weed control at 62.5 g/ha: 62.5 g ai/ha, read-out: Velvetleaf damage rating (100=total damage to plant; 0=no damage to plant); for pest or weed control at 62.5 g/ha / pest or weed control at 250 g/ha: evaluated after 13 days; for pest or weed control at 250 g/ha: 250 g ai/ha, read-out: damage to plant, Velvetleaf (100=total damage to plant; 0=no damage to plant)
Summary of the method: as §2

[11] = test system: ivy-leaved morning glory (Ipomoea hederacea); assay: Test G Post-Emergence Protocol; settings: Ipomoea, post-emergence, 312 h; for pest or weed control at 15.625 g/ha: 15.625 g ai/ha, evaluated after 13 days (100=total damage to plant; 0=no damage to plant), read-out: Morningglory, Ivy-leaved damage rating; for pest or weed control at 62.5 g/ha: 62.5 g ai/ha, read-out: Morningglory, Ivy-leaved damage rating (100=total damage to plant; 0=no damage to plant); for pest or weed control at 62.5 g/ha / pest or weed control at 250 g/ha: evaluated after 13 days; for pest or weed control at 250 g/ha: 250 g ai/ha, read-out: damage to plant, Morningglory, Ivy-leaved (100=total damage to plant; 0=no damage to plant)
Summary of the method: as §2

[12] = test system: redroot pigweed (Amaranthus retroflexus); assay: Test G Post-Emergence Protocol; settings: Amaranthus retroflexus, post-emergence, 312 h; for pest or weed control at 15.625 g/ha: 15.625 g ai/ha, evaluated after 13 days (100=total damage to plant; 0=no damage to plant), read-out: Pigweed, Redroot damage rating; for pest or weed control at 62.5 g/ha: 62.5 g ai/ha, read-out: Pigweed, Redroot damage rating (100=total damage to plant; 0=no damage to plant); for pest or weed control at 62.5 g/ha / pest or weed control at 250 g/ha: evaluated after 13 days; for pest or weed control at 250 g/ha: 250 g ai/ha, read-out: damage to plant, Pigweed, Redroot (100=total damage to plant; 0=no damage to plant)
Summary of the method: as §2

Structure (SMILES) | pest or weed control at 15.625 g/ha [1] [%] | pest or weed control at 62.5 g/ha [1] [%] | pest or weed control at 250 g/ha [1] [%] | plant injury at 15.625 g/ha [2] [%] | plant injury at 62.5 g/ha [2] [%] | plant injury at 250 g/ha [2] [%] | pest or weed control at 15.625 g/ha [3] [%] | pest or weed control at 62.5 g/ha [3] [%] | pest or weed control at 250 g/ha [3] [%] | pest or weed control at 15.625 g/ha [4] [%] | pest or weed control at 62.5 g/ha [4] [%] | pest or weed control at 250 g/ha [4] [%] | pest or weed control at 15.625 g/ha [5] [%] | pest or weed control at 62.5 g/ha [5] [%] | pest or weed control at 250 g/ha [5] [%] | pest or weed control at 15.625 g/ha [6] [%] | pest or weed control at 62.5 g/ha [6] [%] | pest or weed control at 250 g/ha [6] [%] | pest or weed control at 15.625 g/ha [7] [%] | pest or weed control at 62.5 g/ha [7] [%] | other results
CN1C[C@@H](c2ccc(C(F)(F)F)cc2)[C@H](C(=O)Nc2c[nH]nc2C(F)(F)F)C1=O (racemic) [Compound 1535] | 0 | 0 | 0 | 0 | 0 | 0 | 0 | 0 | 0 | 0 | 0 | 0 | 0 | 0 | 0 | 0 | 20 | 40 | 0 | 0 | pest or weed control at 250 g/ha [7]: 0%; plant injury at 15.625 g/ha [8]: 0%; plant injury at 62.5 g/ha [8]: 0%; plant injury at 250 g/ha [8]: 10%; pest or weed control at 15.625 g/ha [9]: 0%; pest or weed control at 62.5 g/ha [9]: 0%; pest or weed control at 250 g/ha [9]: 0%; pest or weed control at 15.625 g/ha [10]: 0%; pest or weed control at 62.5 g/ha [10]: 0%; pest or weed control at 250 g/ha [10]: 0%; pest or weed control at 15.625 g/ha [11]: 0%; pest or weed control at 62.5 g/ha [11]: 0%; pest or weed control at 250 g/ha [11]: 0%; pest or weed control at 15.625 g/ha [12]: 0%; pest or weed control at 62.5 g/ha [12]: 10%; pest or weed control at 250 g/ha [12]: 30%
CN1C[C@@H](c2ccc(C(F)(F)F)cc2)[C@H](C(=O)Nc2ccccc2Cl)C1=O (racemic) [Compound 1598] | 60 | 80 | 90 | 0 | 10 | 70 | 0 | 70 | 80 | 0 | 10 | 60 | 10 | 20 | 40 | 10 | 40 | 50 | 80 | 80 | pest or weed control at 250 g/ha [7]: 80%; plant injury at 15.625 g/ha [8]: 0%; plant injury at 62.5 g/ha [8]: 40%; plant injury at 250 g/ha [8]: 60%; pest or weed control at 15.625 g/ha [9]: 30%; pest or weed control at 62.5 g/ha [9]: 80%; pest or weed control at 250 g/ha [9]: 70%; pest or weed control at 15.625 g/ha [10]: 0%; pest or weed control at 62.5 g/ha [10]: 20%; pest or weed control at 250 g/ha [10]: 50%; pest or weed control at 15.625 g/ha [11]: 30%; pest or weed control at 62.5 g/ha [11]: 60%; pest or weed control at 250 g/ha [11]: 70%; pest or weed control at 15.625 g/ha [12]: 30%; pest or weed control at 62.5 g/ha [12]: 50%; pest or weed control at 250 g/ha [12]: 70%
Cc1n[nH]cc1NC(=O)[C@@H]1C(=O)N(C)C[C@H]1c1ccc(C(F)(F)F)cc1 (racemic) [Compound 1634] | 0 | 0 | 0 | 0 | 0 | 0 | 0 | 0 | 0 | 0 | 0 | 0 | 0 | 0 | 0 | 0 | 0 | 0 | 0 | 0 | pest or weed control at 250 g/ha [7]: 20%; plant injury at 15.625 g/ha [8]: 0%; plant injury at 62.5 g/ha [8]: 0%; plant injury at 250 g/ha [8]: 0%; pest or weed control at 15.625 g/ha [9]: 0%; pest or weed control at 62.5 g/ha [9]: 0%; pest or weed control at 250 g/ha [9]: 0%; pest or weed control at 15.625 g/ha [10]: 0%; pest or weed control at 62.5 g/ha [10]: 0%; pest or weed control at 250 g/ha [10]: 0%; pest or weed control at 15.625 g/ha [11]: 0%; pest or weed control at 62.5 g/ha [11]: 0%; pest or weed control at 250 g/ha [11]: 0%; pest or weed control at 15.625 g/ha [12]: 0%; pest or weed control at 62.5 g/ha [12]: 0%; pest or weed control at 250 g/ha [12]: 0%
